US20070184047A1, “Nitrophenyls and related compounds and thimerosal for the inhibition of immune related cell or tissue destruction” (Canadian Blood Services, priority 2005, published 2007)

What was measured:
[1] = test system: FcγR-mediated phagocytosis of anti-D-coated RBCs by monocyte-macrophages (Mφ); test: Monocyte monolayer assay (MMA): inhibition of phagocytosis of anti-D-sensitized RBCs; type: cell-based, human; conditions: for inhibition of phagocytosis over the test concentration range: 10^−4 down to 10^−9 mol per L
From the text: The test concentration of immunoglobulin (anti-D or IVIg) was chosen after titration of each immunoglobulin on its own to inhibit FcγR and phagocytosis of anti-D-coated RBCs using a monocyte monolayer assay (MMA) as previously described in Rampersad et al., supra and Foo et al., supra. […] The two controls used in these experiments were chemical alone and immunoglobulin alone. For each experiment, the controls and a mixture of chemical and immunoglobulin in phosphate buffered saline (PBS) pH 7.4, were placed in separate tubes (Sarstedt) and gently rotated for 24 hours at room temperature. The solutions were then transferred to respective cellulose dialysis tubing membranes with a molecular size cut off of 12,000 daltons (Sigma-Aldrich) that had been cut to length and washed as per the manufacturer's directions by boiling in a solution containing one mmol/L ethylenediaminetetraacetic acid (EDTA) (BioShop) and 2% sodium bicarbonate (Fisher Scientific) in PBS. Dialysis was performed in large beakers of PBS for 5-7 days at 4° C. with daily changes of PBS.
Preparation of anti-D-sensitized R2R2 red blood cells (RBCs) has been previously described in Rampersad et al., supra and Foo et al., supra. Briefly, RBCs were resuspended in PBS to 5% concentration, mixed with an equal volume of human polyclonal anti-D (Immucor, Tex., Houston, USA) in PBS solution, and then incubated for 1 hour at 37° C. and 5% CO2. After which, the sensitized RBCs were washed four times in PBS and resuspended to 2.5% in PBS. […] The MMA was performed as previously described in Foo et al., supra, without modification.
A phagocytic index was calculated as described in Rampersad et al., supra; Foo et al., supra; and Branch et al., British Journal of Haematology, 1984; 56:19-29, as the unitless number of antibody-sensitized RBCs phagocytosed per 100 Mφ. Residual and phagocytosed RBCs were distinguished by relative differences in refracted light under phase-contrast microscopy. Percent inhibition was calculated as previously described^2 taking the phagocytic control index to be 100. […] Statistical significance of inhibition between treated and untreated Mφ were analysed using Student t-test and Analysis of Variance (ANOVA), and/or, General Linear Model (GLM) Analysis and Student-Newman-Keuls test. A p value of <0.05 was considered to be significant.
As previously described with minor modification, Rampersad et al., Transfusion, 2005; 45:384:93, an aliquot of R2R2 RBCs was removed from storage in Alsever's solution, Walker et al., American Association of Blood Banks, 11th ed., Bethesda, 1993, at 4° C. and washed three times in PBS without calcium or magnesium (Gibco/Invitrogen) at 2000 r.p.m. for 7 minutes (Sorvall RT 6000D centrifuge, Mandel Scientific Company Inc., Guelph, Ontario, Canada). The RBCs were resuspended in PBS to 5 percent concentration, mixed with an equal volume of human anti-D in PBS solution, and then incubated for 1 hour at 37° C. and 5 percent CO2 (Sanyo CO2 incubator), after which the sensitized RBCs were washed four times in PBS at 2000 r.p.m. for 7 minutes and resuspended to 2.5 percent in PBS.
As previously described with slight modification to improve the quality of the Mφ monolayer, Rampersad et al, supra, whole venous blood was drawn from donors into tubes (Vacutainer, ACD solution A, Becton Dickinson Vacutainer Systems, Franklin Lakes, N.J.) and mixed with an equal volume of PBS.

[2] = test system: immune-mediated platelet destruction (anti-platelet antibody); test: Model of immune-mediated platelet destruction, treatment prior to anti-platelet antibody; type: in vivo, mice; conditions: administered prior to anti-platelet antibody
Procedure: Referring to FIG. 5, unlike the model in FIG. 4A-4C, the treatment was administered prior to injecting the mice with the anti-platelet antibody.

PBMCs = test: FACS annexin V-FITC/PI analysis for viable and apoptotic PBMCs; type: cell-based; conditions: for effect on PBMC viability or apoptosis: 10^−4 to 10^−9 mol per L, 1 hour; for necrotic cell counts: PBMCs
From the text: Fluorescence-activated cell sorting (FACS) analysis (flow cytometry) and a TACS annexin V-fluorescein isothiocyanate (FITC) apoptosis detection kit (R&D Systems, Minneapolis, Minn.) were used to determine if disulfide-containing compounds benzoylmethyl methyl disulfide and phenyl methyl disulfide exert effects on viability or apoptosis of PBMCs. Briefly, PBMCs were isolated from whole blood as previously outlined and treated with culture medium or chemical from 10^−4 to 10^−9 mol per L for 1 hour at 37° C. and 5 percent CO2. They were then washed three times in PBS and collected by centrifugation at 12,000 r.p.m. for 5 to 10 minutes before being incubated in culture medium for 2 hours. After washing the cells once in cold PBS, according to the manufacturer's instructions, cells were then incubated with annexin V-FITC incubation reagent for 15 minutes at room temperature to stain membrane exposed phosphatidylserine, indicating early programmed cell death or apoptosis. Cells were then stained with propidium iodide (PI), specific for nonviable cells, to identify late apoptotic cells. FACS was performed with two-color analysis on a flow cytometer (FACSCalibur E4795, Becton Dickinson, Mississauga, Ontario, Canada) calibrated with fluorescent beads (CaliBRITE, BD Biosciences, San Jose, Calif.) and computer software for data analyses (Cell Quest, BD Biosciences).

[3] = test system: immune-mediated platelet destruction (anti-platelet antibody); test: Model of immune-mediated platelet destruction, treatment at day 2; type: in vivo, mice; conditions: single dose at day 2 instead of IVIg, anti-platelet antibody continued daily
Procedure: Referring now to FIGS. 4A through 4C, shown are the results using a model of immune-mediated platelet destruction wherein the anti-platelet antibody is administered on day 0 and daily thereafter. The platelet count fell abruptly after 24 hours (day 1) indicating platelets were destroyed after the antibody was recognized and bound to the platelets. […] In FIGS. 4B and 4C at day 2, instead of IVIg, two mice were administered a single dose of thimerosal or a nitrophenyl compound p-nitrophenyl methyl disulfide (G-B) (FIG. 4C).

Compound | inhibition of phagocytosis over the test concentration range [1] | effect on loss of platelets following anti-platelet antibody [2] | inhibition of phagocytosis ([1]; 10^−4 mol per L) [%] | also measured
CSCc1ccc([N+](=O)[O-])cc1 [p-nitrobenzyl methyl sulfide] | did not inhibit phagocytosis | – | – | –
p-nitrophenylethanol | None of these compounds were able to inhibit phagocytosis | zero platelet loss | – | –
O=[N+]([O-])c1ccc(O)cc1 [p-nitrophenol, reference compound] | None of these compounds were able to inhibit phagocytosis | – | – | –
CSSc1ccccc1 [phenyl methyl disulfide] | inhibition of phagocytosis in a dose-dependent manner | – | 54 | effect on PBMC viability or apoptosis (PBMCs): do not significantly affect PBMC viability or apoptosis; necrotic cell counts (PBMCs; 10^−4 mol per L): 2.36%; necrotic cell counts (PBMCs; 10^−5 mol per L): 1.05%
CSSc1ccc([N+](=O)[O-])cc1 [p-nitrophenyl methyl disulfide] | inhibited macrophage phagocytosis in vitro in a dose-dependent manner | little effect on the subsequent loss of platelets | 98.6 | platelet count after treatment [3]: the platelet count began to rise; inhibition of phagocytosis ([1]; 10^−7 mol per L): 29%
C[CH2][Hg][S]c1ccccc1C(=O)[O-].[Na+] [thimerosal] | – | little effect on the subsequent loss of platelets | – | platelet count after treatment [3]: the platelet count began to rise; inhibition of phagocytosis ([1]; used alone at 10^−3M, undialyzed): 100%; inhibition of phagocytosis after dialysis ([1]; used alone at 10^−5M or 10^−3M, after dialysis): no longer inhibits phagocytosis after dialysis; inhibition of phagocytosis ([1]; used alone at 10^−5M, undialyzed): 100%
O=[N+]([O-])c1ccccc1 [nitrobenzene, reference compound] | None of these compounds were able to inhibit phagocytosis | – | – | –
CSSCC(=O)c1ccccc1 [benzoylmethyl methyl disulfide] | inhibited phagocytosis in a dose-dependent manner | – | 62 | effect on PBMC viability or apoptosis (PBMCs): do not significantly affect PBMC viability or apoptosis
O=C(CS)c1ccccc1 [benzoylmethyl mercaptan] | ineffective | – | – | –
CC(O)c1ccccc1 (stereo not shown) [1-phenylethanol, reference compound] | None of these compounds were able to inhibit phagocytosis | – | – | –
